From patent US20090291950A1, “BICYCLIC HETEROARYL INHIBITORS OF PDE4” (KALYPSYS, INC., priority 2006, published 2009)

Assays:
[1] = biological target: T1, PDE4B (Homo sapiens, UniProt Q07343); test: coupled PDE/AK bioluminescent assay; format: biochemical; details: catalytic domain of PDE4B
T1 construct: hexahistidine (His6) (N); made in house
Description: Phosphodiesterases regulate the activity of the second messenger cyclic adenosine monophosphate (cAMP) by hydrolyzing cAMP to adenosine monophosphate (AMP). We developed a novel coupled PDE/AK bioluminescent high-throughput assay to measure the activity of phosphodiesterases. In the PDE/AK assay, the AMP produced from the hydrolysis of cAMP by phosphodiesterase is converted to adenosine diphosphate (ADP) by the phosphotransferase activity of adenylate kinase (also known as ADK or myokinase). Adenylate kinase will catalyze the conversion of 1 mole of AMP and 1 mole of ATP into 2 moles of ADP. Thus the conversion of AMP to ADP will result in the subsequent loss of ATP. The decrease in ATP concentration can be monitored as light output using luciferase in a reaction that requires ATP to produce light. The PDE/AK assay uses luciferase, which catalyzes the production of light from ATP present in the reaction mix. The amount of emitted light is inversely proportional to the level of AMP present in the reaction. Test compounds are incubated with the phosphodiesterases and phosphodiesterase inhibitors will decrease the rate of cAMP hydrolysis and decrease the subsequent production of AMP. Thus phosphodiesterase inhibitors will decrease the conversion of ATP to ADP and result in the greatest emission of light.
Compounds may be screened for functional potency in in vitro biochemical assays for their ability to inhibit the activity of phosphodiesterase (PDE) enzymes. A novel coupled PDE/AK assay was utilized to measure the inhibitory activity of compounds on PDE isoforms. The catalytic domain of PDE4B was fused to an amino-terminus hex-histidine affinity tag and purified. PDE4B enzyme was incubated with compounds for 10 minutes. Cyclic AMP substrate, ATP and adenylate kinase were then added to the PDE enzyme mix and incubated for 45 minutes at room temperature. A commercial ATP detection assay, Perkin Elmer's easyLite ATP detection reagent, was then added to measure the relative amount of ATP present in the reaction. After 10 minute incubation, the luminescent signal was quantitated with either the Perkin Elmer Viewlux or Molecular Devices Acquest or Analyst. Roflumilast and Rolipram are the positive controls used in the assay.
The PDE/AK assay can be performed with any cAMP dependent phosphodiesterase, and can be performed in 96-, 384-, or 1536-well plates. […] Specifically, the use of radioactive substrates in a phosphodiesterase activity assay requires special protocols for handling and waste disposal, and reduced throughput. Modified substrates add the additional complexity of potentially altering the binding to the phosphodiesterase catalytic site. Fluorescently modified substrates may cause fluorescence artifacts that may interfere in the interpretation of assay results. The use of beads that selectively bind to either the cAMP or AMP may cause an additional complexity in reagent handling. The use of antibodies that selectively bind to either cAMP or AMP can be extremely costly with a relatively small signal to noise ratio. Therefore, the novel PDE/AK assay represents a simple, cost-effective alternative to known methods.

[2] = system: dry eye (corneal staining, tear breakup time); test: Lacrimal gland inflammation-induced dry eye in rabbits; format: in vivo; details: topical ocular BID, rabbit ConA dry eye
Description: A more detailed description of the assay used herein may be found in Naglehout, T J et al. 2005, “Preservation of Tear Film Integrity and Inhibition of Corneal Injury by Dexamethasone in a Rabbit Model of Lacrimal Gland Inflammation-Induced Dry Eye,”J. Ocular Pharm. Ther., 21:2. 139-148, the disclosure of which is hereby incorporated by reference as if written herein in its entirety. Rabbits (n=4/group) were randomized into treatment groups and dosed topically BID with maxidex vehicle or test drug beginning one day prior to initiation of dry eye. Each rabbit received bilateral lacrimal gland injections of saline or ConA (300 μg/30 μl) and topical ocular dosing was continued BID throughout the study. Desiccation was initiated 1-2 hours following lacrimal gland injection by placing conscious rabbits in the environmental chamber (10-15% humidity/72° F.). Following 72 consecutive hours of exposure to this dry environment, the animals were anesthetized and sutures were placed in each upper and lower eyelid and lifted to form a corneal/conjunctival cup. Methylene blue dye (1 mL, 1% in dH2O) was added to the cup for three minutes and the excess removed by washing with 200 mL BSS®. The contralateral eye was then stained using the same procedure. Rabbits were euthanized immediately following the staining procedure and the eyes were excised. The corneas were isolated with a trephine and the 9.5-mm punch of the cornea was placed in 2 mL acetone/saturated sodium sulfate (7:3, vol./vol.). Absorbance of the extracted dye was determined at 660 nm. TBUT was quantified in a separate group of treated animals. TBUT was determined by instilling 5 μL sodium fluorescein into the cul de sac and manually blinking the lids to distribute the fluorescein within the tear film. Under slit lamp observation, the eye was held open and the time whereby one or more black spots or streaks appeared in the precorneal tear film was recorded. The rabbits were euthanized 3 days following ConA inj ection.

[3] = 1 × 10^−2 percent concentration
[4] = 1 × 10^−4 percent concentration
[5] = 1 × 10^−6 percent concentration

T1 sequence (Q07343 330-659 limits assumed, species assumed): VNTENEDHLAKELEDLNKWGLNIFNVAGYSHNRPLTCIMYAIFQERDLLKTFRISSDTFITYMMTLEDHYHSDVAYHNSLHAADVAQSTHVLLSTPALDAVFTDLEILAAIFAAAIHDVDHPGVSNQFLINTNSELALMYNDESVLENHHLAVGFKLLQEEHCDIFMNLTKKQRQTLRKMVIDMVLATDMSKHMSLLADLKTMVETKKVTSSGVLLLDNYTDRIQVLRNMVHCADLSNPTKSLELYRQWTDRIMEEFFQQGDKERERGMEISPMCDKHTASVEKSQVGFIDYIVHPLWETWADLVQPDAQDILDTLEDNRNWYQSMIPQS

SMILES | IC50 [1] [nM] | Activity at Percent Concentration Tested [2, 3] | Activity at Percent Concentration Tested [2, 4] | Activity at Percent Concentration Tested [2, 5]
CCOc1cc(Nc2c(Cl)cncc2Cl)c2ccc(OC)c(OC3CCCC3)c2n1 [Example 20, 8-(Cyclopentyloxy)-N-(3,5-dichloropyridin-4-yl)-2-ethoxy-7-methoxyquinolin-4-amine] | ≤ 1000 |  |  | 
COc1ccc2c(Nc3c(Cl)cncc3Cl)cc(N(C)C)nc2c1OC1CCCC1 [Example 21, 8-(Cyclopentyloxy)-N4-(3,5-dichloropyridin-4-yl)-7-methoxy-N2,N2-dimethylquinoline-2,4-diamine] | ≤ 1000 |  |  | 
CNc1cc(Nc2c(Cl)cncc2Cl)c2ccc(OC)c(OC3CCCC3)c2n1 [Example 22, 8-(Cyclopentyloxy)-N4-(3,5-dichloropyridin-4-yl)-7-methoxy-N2-methylquinoline-2,4-diamine] | ≤ 1000 |  |  | 
COc1ccc2c(Nc3c(Cl)cncc3Cl)cc(N)nc2c1OC1CCCC1 [Example 23, 8-(Cyclopentyloxy)-N4-(3,5-dichloropyridin-4-yl)-7-methoxyquinoline-2,4-diamine] | ≤ 1000 | Inactive | Inactive | Inactive
COc1ccc2c(Nc3c(Cl)cncc3Cl)cc(Cl)nc2c1OC1CCCC1 [Example 24, 2-Chloro-8-(cyclopentyloxy)-N-(3,5-dichloropyridin-4-yl)-7-methoxyquinolin-4-amine] | ≤ 1000 |  |  | 
COc1ccc2c(Nc3c(Cl)cncc3Cl)cc(OCCN(C)C)nc2c1OC1CCCC1 [Example 25, 8-(Cyclopentyloxy)-N-(3,5-dichloropyridin-4-yl)-2-(2-(dimethylamino)ethoxy)-7-methoxyquinolin-4-amine] | ≤ 1000 | Inactive | Inactive | Inactive
COc1ccc2c(Nc3c(Cl)cncc3Cl)c(Cl)c(OCCN(C)C)nc2c1OC1CCCC1 [Example 26, 3-Chloro-8-(cyclopentyloxy)-N-(3,5-dichloropyridin-4-yl)-2-(2-(dimethylamino)ethoxy)-7-methoxyquinolin-4-amine] | ≤ 1000 |  |  | 
COc1ccc2c(Nc3c(Cl)cncc3Cl)cc(OCCO)nc2c1OC1CCCC1 [Example 27, 2-(8-(Cyclopentyloxy)-4-(3,5-dichloropyridin-4-ylamino)-7-methoxyquinolin-2-yloxy)ethanol] | ≤ 1000 |  |  | 
COc1ccc2c(Nc3c(Cl)cncc3Cl)cc(OCCN3CCOCC3)nc2c1OC1CCCC1 [Example 28, 8-(Cyclopentyloxy)-N-(3,5-dichloropyridin-4-yl)-7-methoxy-2-(2-morpholinoethoxy)quinolin-4-amine] | ≤ 1000 |  |  | 
COc1ccc2c(Nc3c(Cl)cncc3Cl)cc(OCCCN(C)C)nc2c1OC1CCCC1 [Example 29, 8-(Cyclopentyloxy)-N-(3,5-dichloropyridin-4-yl)-2-(3-(dimethylamino)propoxy)-7-methoxyquinolin-4-amine] | ≤ 1000 |  |  | 
COc1ccc2c(Nc3c(Cl)cncc3Cl)cc(OCCN(C)C)nc2c1OCC1CC1 [Example 30, 8-(Cyclopropylmethoxy)-N-(3,5-dichloropyridin-4-yl)-2-(2-(dimethylamino)ethoxy)-7-methoxyquinolin-4-amine] | ≤ 1000 | Inactive | Inactive | Inactive
